Test results reported in ChEMBL document CHEMBL1151067, “Stereoselectivity in the hydrolysis of synthetic esters by cultured cancer cells and normal tissue extracts of rat” (1994).

Tests used:
Rattus norvegicus [1] = species on record: Rattus norvegicus; assay: Stereoselectivity in enzymic hydrolysis by normal rat liver extracts; type: functional
Rattus norvegicus [2] = species on record: Rattus norvegicus; assay: Stereoselectivity in enzymic hydrolysis by normal rat intestine extracts; type: functional
IA-XsSBR cell line = assay: Stereoselectivity in enzymic hydrolysis by rat cancer IA-XsSBR cells; type: functional
U-937 = assay: Stereoselectivity in enzymic hydrolysis by human cancer U937 (histiocytic lymphoma) cells; type: functional
NRK-49F = assay: Stereoselectivity in enzymic hydrolysis by rat cancer NRK49F cells; type: functional
Rattus norvegicus [3] = species on record: Rattus norvegicus; assay: Stereoselectivity in enzymic hydrolysis by normal rat muscle extracts; type: functional, Muscle tissue
CCRF S-180 [4] = assay: Stereoselectivity in enzymic hydrolysis by mouse sarcoma S180 cells; type: functional
MIA PaCa-2 = assay: Stereoselectivity in enzymic hydrolysis by human cancer MIA PaCa-2 (pancreatic carcinoma) cells; type: functional
Rattus norvegicus [5] = species on record: Rattus norvegicus; assay: Stereoselectivity in enzymic hydrolysis by normal rat pancreas extracts; type: functional
ARIP cell line = assay: Stereoselectivity in enzymic hydrolysis by rat cancer ARIP cells; type: functional
COLO 320 = assay: Stereoselectivity in enzymic hydrolysis by human cancer COLO 320 (colon adenocarcinoma) cells; type: functional
XC = assay: Stereoselectivity in enzymic hydrolysis by rat cancer XC cells; type: functional
Rattus norvegicus [6] = species on record: Rattus norvegicus; assay: Stereoselectivity in enzymic hydrolysis by normal rat kidney extracts; type: functional
Anr4 = assay: Stereoselectivity in enzymic hydrolysis by rat cancer Anr4 cells; type: functional
CCRF S-180 [7] = assay: Stereoselectivity in enzymic hydrolysis of compound by mouse sarcoma S180 cells; type: functional

How did the Conversion rate (Rattus norvegicus [1]) turn out when `CCOC(=O)C(Cc1ccccc1)NC(C)=O` (stereo not drawn) was run?
The Conversion rate was 48.2%.

What about the Conversion rate (Rattus norvegicus [2]) of the same compound?
Its Conversion rate is 37.3%.

What about the Conversion rate (IA-XsSBR cell line) of the same compound?
The Conversion rate was 30.5%.

What about the Conversion rate (U-937) of the same compound?
Its Conversion rate is 17.5%.

And the Conversion rate (NRK-49F)?
Its Conversion rate is 35.1%.

What about the Conversion rate (Rattus norvegicus [3]) of the same compound?
The Conversion rate was 31.9%.

What about the Conversion rate (CCRF S-180 [4]) of the same compound?
The Conversion rate was 12.9%.

And the Conversion rate (MIA PaCa-2)?
The Conversion rate was 42%.

And the Conversion rate (Rattus norvegicus [5])?
The Conversion rate was 43.8%.

And the Conversion rate (ARIP cell line)?
Its Conversion rate is 37.2%.

What about the Conversion rate (COLO 320) of the same compound?
Its Conversion rate is 13.8%.

What about the Conversion rate (XC) of the same compound?
Its Conversion rate is 42%.

What about the Conversion rate (Rattus norvegicus [6]) of the same compound?
The Conversion rate was 23.2%.

What about the Conversion rate (Anr4) of the same compound?
Its Conversion rate is 30.6%.

How did the Conversion rate (Rattus norvegicus [1]) turn out when `CCOC(=O)C(NC=O)c1ccccc1` (stereo not drawn) was run?
Its Conversion rate is 2.7%.

And the Conversion rate (Rattus norvegicus [2])?
Its Conversion rate is 1.4%.

And the Conversion rate (IA-XsSBR cell line)?
Its Conversion rate is 1.3%.

What about the Conversion rate (U-937) of the same compound?
The Conversion rate was 3.5%.

And the Conversion rate (NRK-49F)?
The Conversion rate was 2.2%.

What about the Conversion rate (Rattus norvegicus [3]) of the same compound?
Its Conversion rate is 5.9%.

What about the Conversion rate (CCRF S-180 [4]) of the same compound?
The Conversion rate was 3.6%.

And the Conversion rate (Rattus norvegicus [5])?
The Conversion rate was 14.3%.

What about the Conversion rate (ARIP cell line) of the same compound?
The Conversion rate was 1.6%.

And the Conversion rate (COLO 320)?
The Conversion rate was 3.8%.

And the Conversion rate (XC)?
The Conversion rate was 1.2%.

What about the Conversion rate (Rattus norvegicus [6]) of the same compound?
The Conversion rate was 7.6%.

And the Conversion rate (Anr4)?
The Conversion rate was 1.2%.

For `CCOC(=O)C(C)c1ccccc1` (stereo not drawn), which Conversion rate (Rattus norvegicus [1]) is on record?
The Conversion rate was 11.5%.

And the Conversion rate (Rattus norvegicus [2])?
Its Conversion rate is 5%.

And the Conversion rate (IA-XsSBR cell line)?
The Conversion rate was 1.4%.

What about the Conversion rate (U-937) of the same compound?
The Conversion rate was 1.4%.

And the Conversion rate (NRK-49F)?
Its Conversion rate is 8.2%.

What about the Conversion rate (Rattus norvegicus [3]) of the same compound?
Its Conversion rate is 1%.

And the Conversion rate (MIA PaCa-2)?
Its Conversion rate is 11.9%.

What about the Conversion rate (CCRF S-180 [7]) of the same compound?
Its Conversion rate is 18.1%.

What about the Conversion rate (Rattus norvegicus [5]) of the same compound?
Its Conversion rate is 1.2%.

And the Conversion rate (ARIP cell line)?
Its Conversion rate is 6.9%.

What about the Conversion rate (COLO 320) of the same compound?
The Conversion rate was 1.2%.

What about the Conversion rate (XC) of the same compound?
The Conversion rate was 0.6%.

What about the Conversion rate (Rattus norvegicus [6]) of the same compound?
Its Conversion rate is 11.2%.

And the Conversion rate (Anr4)?
Its Conversion rate is 0.5%.

With `CCOC(=O)C(NC(C)=O)c1ccccc1` (stereo not drawn) as the compound, how does the Conversion rate (CCRF S-180 [4]) read?
The Conversion rate was 4.3%.

With `CCOC(=O)C(C)Oc1ccccc1` (stereo not drawn) as the compound, how does the Conversion rate (Rattus norvegicus [1]) read?
Its Conversion rate is 52.5%.

And the Conversion rate (Rattus norvegicus [2])?
The Conversion rate was 5%.

What about the Conversion rate (IA-XsSBR cell line) of the same compound?
The Conversion rate was 12.2%.

And the Conversion rate (NRK-49F)?
The Conversion rate was 4.5%.

And the Conversion rate (Rattus norvegicus [3])?
The Conversion rate was 18%.

And the Conversion rate (CCRF S-180 [4])?
Its Conversion rate is 38.9%.

And the Conversion rate (MIA PaCa-2)?
Its Conversion rate is 35.9%.

And the Conversion rate (Rattus norvegicus [5])?
Its Conversion rate is 33.3%.

And the Conversion rate (ARIP cell line)?
The Conversion rate was 5.7%.

And the Conversion rate (XC)?
The Conversion rate was 23%.

What about the Conversion rate (Rattus norvegicus [6]) of the same compound?
Its Conversion rate is 53%.

What about the Conversion rate (Anr4) of the same compound?
Its Conversion rate is 14.2%.

`CC(C(=O)OCCC1CCCCC1)c1ccccc1` (stereo not drawn) was tested. Which Conversion rate (CCRF S-180 [4]) did it give?
The Conversion rate was 6.1%.

How did the Conversion rate (CCRF S-180 [4]) turn out when `CCOC(=O)C(OC)c1ccccc1` (stereo not drawn) was run?
Its Conversion rate is 4.3%.

How did the Conversion rate (CCRF S-180 [4]) turn out when `CCCCCCCCOC(=O)C(C)c1ccccc1` (stereo not drawn) was run?
Its Conversion rate is 11%.

Which Conversion rate (CCRF S-180 [4]) does the source give for `CCOC(=O)C(O)c1ccccc1` (stereo not drawn) here?
Its Conversion rate is 21.2%.
